Entries after “also recorded” stand apart in the source; their conditions may differ. Marks after values point to notes of the source that are not given here.
How the values were obtained:
CYP2C = details: for Ratio of residual activity (substrate + inhibitor versus substrate only), CYP2C TB: TB 200 µM, inhibitors SFZ 0.5, α-NFV 0.1 (1 µM), QND 0.1, KET 0.3, DDC 20, 8-MPS 1 µM, mean (SD) of 3
CYP2D6 = test system: CYP2D6; set-up: method as in Cyrus et al, 2011; details: ref Cyrus et al, 2011; cited from earlier work
CYP2D [1] = molecular target: T1, CYP2D (Sus scrofa, UniProt O46658); test: Incubation with inhibitors: DXM-O-demethylation in porcine hepatic microsomes; assay type: in vitro ADME, conventional pig; details: for Ratio of residual activity (substrate + inhibitor versus substrate only), CYP2D DXM: DXM 10 µM, inhibitors SFZ 0.5, α-NFV 0.1 (1 µM), QND 0.1, KET 0.3, DDC 20, 8-MPS 1 µM, mean (SD) of 3; for Inhibition of DXM-O-demethylation by inhibitor: porcine hepatic microsomes
T1 construct: from tissue; host or cells: pig liver microsomes
T1 sequence (O46658 1-500): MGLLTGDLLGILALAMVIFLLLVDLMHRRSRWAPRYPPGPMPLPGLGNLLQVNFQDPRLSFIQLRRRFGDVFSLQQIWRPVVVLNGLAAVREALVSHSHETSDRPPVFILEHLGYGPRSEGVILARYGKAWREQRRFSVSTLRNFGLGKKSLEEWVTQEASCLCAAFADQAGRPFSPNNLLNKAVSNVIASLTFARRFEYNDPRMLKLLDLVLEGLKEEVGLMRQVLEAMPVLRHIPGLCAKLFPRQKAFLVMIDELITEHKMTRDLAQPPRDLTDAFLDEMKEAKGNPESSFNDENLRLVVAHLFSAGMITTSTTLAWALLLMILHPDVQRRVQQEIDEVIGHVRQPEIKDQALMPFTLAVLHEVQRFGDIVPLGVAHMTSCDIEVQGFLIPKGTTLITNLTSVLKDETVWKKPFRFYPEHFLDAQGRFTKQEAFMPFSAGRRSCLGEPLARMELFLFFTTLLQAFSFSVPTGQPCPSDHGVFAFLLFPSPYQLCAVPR
Procedure: (§1) The inhibitors used were α-NFV, 8-MPS, KET, SFZ, QND, and DDC for CYP1A/2 A, CYP2A, CYP3A, CYP2C, CYP2D, and CYP2E1, respectively. […] All incubations were performed in triplicate.

CYP3A [2] = test: Incubation with inhibitors: MDZ-hydroxylation in porcine hepatic microsomes; assay type: in vitro ADME, conventional pig; details: for Ratio of residual activity (substrate + inhibitor versus substrate only), CYP3A MDZ: MDZ 20 µM, inhibitors SFZ 0.5, α-NFV 0.1 (1 µM), QND 0.1, KET 0.3, DDC 20, 8-MPS 1 µM, mean (SD) of 3
Procedure: as §1

CYP2E = test: Incubation with inhibitors: CZ-hydroxylation in porcine hepatic microsomes; assay type: in vitro ADME, conventional pig; details: for Ratio of residual activity (substrate + inhibitor versus substrate only), CYP2E CZ: CZ 50 µM, inhibitors SFZ 0.5, α-NFV 0.1 (1 µM), QND 0.1, KET 0.3, DDC 20, 8-MPS 1 µM, mean (SD) of 3; for Inhibition of CZ-hydroxylation by inhibitor: porcine hepatic microsomes
Procedure: as §1

CYP1A = test: Incubation with inhibitors: PH-O-deethylation in porcine hepatic microsomes; assay type: in vitro ADME, conventional pig; details: PH 20 µM; inhibitors SFZ 0.5, α-NFV 0.1 (1 µM), QND 0.1, KET 0.3, DDC 20, 8-MPS 1 µM; mean (SD) of 3
Procedure: as §1

CYP2A [3] = test: Incubation with inhibitors: CM-hydroxylation in porcine hepatic microsomes; assay type: in vitro ADME, conventional pig; details: for Ratio of residual activity (substrate + inhibitor versus substrate only), CYP2A CM: CM 1 µM, inhibitors SFZ 0.5, α-NFV 0.1 (1 µM), QND 0.1, KET 0.3, DDC 20, 8-MPS 1 µM, mean (SD) of 3
Procedure: as §1

CYP2A [4] = test system: CYP2A; set-up: method as in Cyrus et al., 2011 and references herein; details: human; ref Cyrus et al., 2011 and references herein; cited from earlier work
CYP3A [5] = details: human; ref Cyrus et al., 2011 and references herein; cited from earlier work
CYP2E1 = test system: CYP2E1; set-up: method as in Baranovà et al., 2005; Pratt-hyatt et al., 2010; details: human; ref Baranovà et al., 2005; Pratt-hyatt et al., 2010; cited from earlier work
CYP2D [6] = test system: CYP2D; set-up: method as in Cyrus et al., 2011 and references herein; details: human; ref Cyrus et al., 2011 and references herein; cited from earlier work
porcine CYP2D25 = test system: porcine CYP2D25; set-up: method as in Skaanild, 2006; Hosseinpour and Wikvall, 2000; details: ref Skaanild, 2006; Hosseinpour and Wikvall, 2000; cited from earlier work
[7] = test system: hepatic CYP450 abundancies; test: Pearson correlation between hepatic CYP450 abundancies and probe activities
[8] = test system: porcine intestinal CYP450 enzymes
porcine CYP450 = details: outcome of general decision tree, Figure 4
[9] = test system: porcine intestinal CYP450 enzymes; test: in vitro; details: pig, pool of 16 pigs, n=3, mean (SD)
human CYP450 = details: Supplementary Table 4; ref Yuan et al., 2002 and references herein; cited from earlier work

Nc1ccc(S(=O)(=O)Nc2ccnn2-c2ccccc2)cc1 [Sulphaphenazole, sulphaphenazole]
Ratio of residual activity (substrate + inhibitor versus substrate only), CYP2C TB (CYP2C): 0.98 (0.135)
Inhibition of CYP2D6 in men (CYP2D6): do not significantly inhibit
Ratio of residual activity (substrate + inhibitor versus substrate only), CYP2D DXM (CYP2D [1]): 0.97 (0.080)
Ratio of residual activity (substrate + inhibitor versus substrate only), CYP3A MDZ (CYP3A [2]): 1.20 (0.050)
Ratio of residual activity (substrate + inhibitor versus substrate only), CYP2E CZ (CYP2E): 1.03 (0.061)
Ratio of residual activity (substrate + inhibitor versus substrate only), CYP1A PH (CYP1A): 1.09 (0.030)
Ratio of residual activity (substrate + inhibitor versus substrate only), CYP2A CM (CYP2A [3]): 1.05 (0.023)

COc1c2occc2cc2ccc(=O)oc12 [8-methoxypsoralen]
Ki (CYP2A [4]): 100 to 1500 nM

CC(=O)N1CCN(c2ccc(OCC3COC(Cn4ccnc4)(c4ccc(Cl)cc4Cl)O3)cc2)CC1 (centres unmarked) [Ketoconazole, ketoconazole]
Inhibition of DXM-O-demethylation by inhibitor (CYP2D [1]): could not inhibit
Effect of inhibitor on MDZ-hydroxylation (CYP3A [2]; porcine hepatic microsomes): potent inhibitors
Inhibition of CZ-hydroxylation by inhibitor (CYP2E): 20%

CCN(CC)C(=S)S [Diethyldithiocarbamate, diethyldithiocarbamate]
Ratio of residual activity (substrate + inhibitor versus substrate only), CYP2C TB (CYP2C): 0.87 (0.046)
Inhibition of TB-hydroxylation by inhibitor (CYP2C; porcine hepatic microsomes): decreased
Ratio of residual activity (substrate + inhibitor versus substrate only), CYP2D DXM (CYP2D [1]): 0.93 (0.084)
Ratio of residual activity (substrate + inhibitor versus substrate only), CYP3A MDZ (CYP3A [2]): 1.15 (0.074)
Ratio of residual activity (substrate + inhibitor versus substrate only), CYP2E CZ (CYP2E): 0.87 (0.003)-
Inhibition of CZ-hydroxylation by inhibitor (CYP2E): decreased
Ki (CYP2E1): 12200 to 38000 nM
Ratio of residual activity (substrate + inhibitor versus substrate only), CYP1A PH (CYP1A): 1.04 (0.010)
Ratio of residual activity (substrate + inhibitor versus substrate only), CYP2A CM (CYP2A [3]): 0.74 (0.079)
Inhibition of CM-hydroxylation by inhibitor (CYP2A [3]; porcine hepatic microsomes): decreased

C=C[C@H]1C[N@@]2CC[C@H]1C[C@@H]2[C@@H](O)c1ccnc2ccc(OC)cc12 [Quinidine, quinidine]
Inhibition of DXM-O-demethylation by inhibitor (CYP2D [1]; listed as QND): did not inhibit; also recorded: no inhibition
Ki (CYP2D [6]): 30 to 400 nM
Inhibition of porcine CYP2D25 (porcine CYP2D25): not to inhibit

Cc1ncc2n1-c1ccc(Cl)cc1C(c1ccccc1F)=NC2 [MDZ, Midazolam]
Pearson's correlation coefficient, MDZ activity vs hepatic CYP3A22 abundance ([7]; level 1 (MDZ 0.50 µM)): 0.54
Pearson's correlation coefficient, MDZ activity vs hepatic CYP3A22 abundance ([7]; level 2 (MDZ 2.00 µM)): 0.62
Pearson's correlation coefficient, MDZ activity vs hepatic CYP3A22 abundance ([7]; level 3 (MDZ 5.00 µM)): 0.69*
Pearson's correlation coefficient, MDZ activity vs hepatic CYP3A22 abundance ([7]; level 4 (MDZ 10.0 µM)): 0.71*
Pearson's correlation coefficient, MDZ activity vs hepatic CYP1A2 abundance ([7]; level 5 (MDZ 20.0 µM)): 0.51
Pearson's correlation coefficient, MDZ activity vs hepatic CYP3A22 abundance ([7]; level 5 (MDZ 20.0 µM)): 0.72*
Pearson's correlation coefficient, MDZ activity vs hepatic CYP3A46 abundance ([7]; level 5 (MDZ 20.0 µM)): 0.57
Pearson's correlation coefficient, MDZ activity vs hepatic CYP1A2 abundance ([7]; level 6 (MDZ 50.0 µM)): 0.56
Pearson's correlation coefficient, MDZ activity vs hepatic CYP3A22 abundance ([7]; level 6 (MDZ 50.0 µM)): 0.65*
Pearson's correlation coefficient, MDZ activity vs hepatic CYP3A46 abundance ([7]; level 6 (MDZ 50.0 µM)): 0.68*
Duodenum a (Hill coefficient) ([8]; duodenal microsomes, pool of 16 pigs, n=3, mean (SD)): 1.26 (0.048)
Ileum a (Hill coefficient) ([8]; ileal microsomes, pool of 16 pigs, n=3, mean (SD)): 1.56 (0.45)
Vmax in intestinal microsomes as % of the hepatic Vmax ([8]; intestinal versus hepatic microsomes): 2%
Jejunum a (Hill coefficient) ([8]; jejunal microsomes, pool of 16 pigs, n=3, mean (SD)): 1.41 (0.043)
Enzyme involvement: High affinity (porcine CYP450): CYP3A
Km at 10 min ([9]; Duodenum Km, duodenal microsomes): 22.1 µM
Km at 10 min ([9]; Ileum Km, ileal microsomes): 16.2 µM
Km at 10 min ([9]; Jejunum Km, jejunal microsomes): 23.1 µM
Km (human CYP450): 3 to 5 µM

From article PMC6592956, “Characterization of Porcine Hepatic and Intestinal Drug Metabolizing CYP450: Comparison with Human Orthologues from A Quantitative, Activity and Selectivity Perspective” (Scientific Reports, 2019)
